Active and inactive are the calls of the source. The rule behind the calls is not given here.
Columns and labels:
CYP1A2 = CYP1A2 (Homo sapiens, UniProt P05177); assay: Inhibition of CYP1A2 in human liver microsomes at 10 uM incubated for 10 mins by LC-MS/MS analysis relative to control; type: ADME, Microsome
[1] = Tmax in overnight fasted Sprague-Dawley rat at 5 mg/kg, iv measured upto 24 hrs; type: ADME, organism-based; conditions: in vivo
HepG2 [2] = assay: Inhibition of lipid metabolism in human HepG2 cells assessed as increase in p-AMPK/AMPK ratio at 10 uM incubated for 24 hrs by Western blot analysis; type: functional, cell-based
[3] = AUC (0 to infinity) in overnight fasted Sprague-Dawley rat at 5 mg/kg, po measured upto 24 hrs; type: ADME, organism-based; set-up: dose 5 mg/kg, time < 24 hrs, route po; conditions: in vivo
[4] = Oral bioavailability in overnight fasted Sprague-Dawley rat at 5 mg/kg measured upto 24 hrs; type: ADME, organism-based; conditions: in vivo
[5] = target: T1, Thyroid hormone receptor beta (Homo sapiens, UniProt P10828); assay: Agonist activity at human TR beta LBD (202 to 461 residues) expressed in Escherichia coli BL21 (DE3) cells assessed as induction of N-terminal biotinylated coactivator SRC2-3 peptide recruitment by alphascreen assay
T1 sequence (P10828 whole entry): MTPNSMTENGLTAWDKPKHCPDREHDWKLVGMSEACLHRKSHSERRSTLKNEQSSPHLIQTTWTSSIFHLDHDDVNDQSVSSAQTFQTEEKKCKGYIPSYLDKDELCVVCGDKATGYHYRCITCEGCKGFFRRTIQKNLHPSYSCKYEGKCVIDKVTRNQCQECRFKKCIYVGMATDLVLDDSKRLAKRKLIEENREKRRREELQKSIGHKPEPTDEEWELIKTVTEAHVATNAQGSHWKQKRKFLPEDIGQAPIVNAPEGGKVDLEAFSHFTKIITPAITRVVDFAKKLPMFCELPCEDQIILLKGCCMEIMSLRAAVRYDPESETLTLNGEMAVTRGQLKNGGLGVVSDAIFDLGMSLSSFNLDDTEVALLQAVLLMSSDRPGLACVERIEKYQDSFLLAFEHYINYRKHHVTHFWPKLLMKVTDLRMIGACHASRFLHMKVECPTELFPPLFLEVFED

HFL1 = assay: Cytotoxicity against human HFL1 cells assessed as reduction in cell viability at 10 uM incubated for 72 to 96 hrs by Celltiter-Glo assay; type: toxicity, cell-based; conditions: hfl1, 10 µM, time 72-96 hrs
HepG2 [6] = assay: Inhibition of lipid metabolism in human HepG2 cells assessed as increase in CPT1 levels at 10 uM incubated for 24 hrs by Western blot analysis; type: functional, cell-based
[7] = Microsomal stability in rat liver microsomes assessed as intrinsic clearance at 1 uM incubated for 60 mins by HPLC-MS/MS analysis; type: ADME, Microsome; conditions: read-out: CLH
[8] = Tmax in overnight fasted Sprague-Dawley rat at 5 mg/kg, po measured upto 24 hrs; type: ADME, organism-based; conditions: in vivo
CYP2C19 = CYP2C19 (Homo sapiens, UniProt P33261); assay: Inhibition of CYP2C19 in human liver microsomes at 10 uM incubated for 45 mins by LC-MS/MS analysis relative to control; type: ADME, Microsome
CYP2C9 = CYP2C9 (Homo sapiens, UniProt P11712); assay: Inhibition of CYP2C9 in human liver microsomes at 10 uM incubated for 10 mins by LC-MS/MS analysis relative to control; type: ADME, Microsome
Sequence of CYP2C9 (P11712 whole entry): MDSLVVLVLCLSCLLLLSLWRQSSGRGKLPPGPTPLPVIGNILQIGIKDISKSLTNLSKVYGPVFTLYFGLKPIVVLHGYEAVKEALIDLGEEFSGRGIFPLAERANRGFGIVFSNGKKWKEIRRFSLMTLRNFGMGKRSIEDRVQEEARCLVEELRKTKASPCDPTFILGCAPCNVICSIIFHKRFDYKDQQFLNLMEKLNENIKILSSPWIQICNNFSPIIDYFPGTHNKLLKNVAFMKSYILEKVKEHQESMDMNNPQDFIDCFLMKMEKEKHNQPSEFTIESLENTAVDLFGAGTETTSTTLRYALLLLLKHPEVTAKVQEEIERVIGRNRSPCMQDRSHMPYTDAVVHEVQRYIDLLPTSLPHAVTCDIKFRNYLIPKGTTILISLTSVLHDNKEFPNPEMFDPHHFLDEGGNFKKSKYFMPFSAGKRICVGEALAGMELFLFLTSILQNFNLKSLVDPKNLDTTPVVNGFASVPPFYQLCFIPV

Sequence of CYP1A2 (P05177 whole entry): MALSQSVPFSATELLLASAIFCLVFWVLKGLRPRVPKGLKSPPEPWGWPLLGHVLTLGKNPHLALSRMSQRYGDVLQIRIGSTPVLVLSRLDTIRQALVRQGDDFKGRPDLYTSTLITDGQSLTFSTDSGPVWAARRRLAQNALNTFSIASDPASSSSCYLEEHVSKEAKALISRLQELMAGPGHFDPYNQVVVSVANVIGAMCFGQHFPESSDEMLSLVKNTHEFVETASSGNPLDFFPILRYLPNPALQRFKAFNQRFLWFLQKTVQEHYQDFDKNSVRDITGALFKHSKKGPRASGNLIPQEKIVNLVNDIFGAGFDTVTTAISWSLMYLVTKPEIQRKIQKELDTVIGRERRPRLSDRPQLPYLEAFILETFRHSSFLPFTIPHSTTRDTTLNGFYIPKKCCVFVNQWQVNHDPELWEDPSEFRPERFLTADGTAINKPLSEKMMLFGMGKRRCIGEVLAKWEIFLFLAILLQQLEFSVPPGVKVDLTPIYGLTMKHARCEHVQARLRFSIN
Sequence of CYP2C19 (P33261 whole entry): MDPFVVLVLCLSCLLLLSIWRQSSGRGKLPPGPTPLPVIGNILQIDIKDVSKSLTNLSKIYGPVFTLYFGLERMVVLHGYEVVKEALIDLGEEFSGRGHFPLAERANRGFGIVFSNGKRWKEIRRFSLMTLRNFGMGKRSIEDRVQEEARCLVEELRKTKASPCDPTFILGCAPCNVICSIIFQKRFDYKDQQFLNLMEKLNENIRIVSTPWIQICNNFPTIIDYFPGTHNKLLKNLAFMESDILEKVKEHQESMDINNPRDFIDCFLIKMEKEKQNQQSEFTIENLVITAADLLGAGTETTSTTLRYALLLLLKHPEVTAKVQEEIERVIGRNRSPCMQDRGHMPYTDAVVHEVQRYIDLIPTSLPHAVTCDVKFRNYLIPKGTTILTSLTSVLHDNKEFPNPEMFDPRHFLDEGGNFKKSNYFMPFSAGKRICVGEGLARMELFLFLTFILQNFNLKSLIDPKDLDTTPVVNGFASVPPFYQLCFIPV

- inhibition at 10 min, 10 µM (CYP1A2): 1.67%
- Tmax [1]: 4.8 min
- AUC(0-inf) [3]: 6830 ng·h/mL
- bioavailability [4]: 57.3%
- EC50 [5]: 21 nM
- CLint scaled at 1 µM [7]: < 45.5 mL/min/kg
- Tmax [8]: 79.8 min
- inhibition at 0.75 h, 10 µM (CYP2C19): 12%
- inhibition at 10 min, 10 µM (CYP2C9): 18.4%
Structure (SMILES): COc1cc(F)cc(C(=O)c2cc(C)c(Oc3ccc4c(O)c(C(=O)NCC(=O)O)nc(OC)c4c3)c(C)c2)c1
- inhibition (HepG2 [2]): Active
- Activity (HFL1): Non-Toxic
- inhibition (HepG2 [6]): Active

Source: ChEMBL document CHEMBL5154903 (J Med Chem, 2022)
